Here are results for 4 compounds from BindingDB's records for doi:10.1111/j.1747-0285.2010.01011.x (University of Mainz, 2010).

Sequence of 5-hydroxytryptamine receptor 2A (P28223 whole entry): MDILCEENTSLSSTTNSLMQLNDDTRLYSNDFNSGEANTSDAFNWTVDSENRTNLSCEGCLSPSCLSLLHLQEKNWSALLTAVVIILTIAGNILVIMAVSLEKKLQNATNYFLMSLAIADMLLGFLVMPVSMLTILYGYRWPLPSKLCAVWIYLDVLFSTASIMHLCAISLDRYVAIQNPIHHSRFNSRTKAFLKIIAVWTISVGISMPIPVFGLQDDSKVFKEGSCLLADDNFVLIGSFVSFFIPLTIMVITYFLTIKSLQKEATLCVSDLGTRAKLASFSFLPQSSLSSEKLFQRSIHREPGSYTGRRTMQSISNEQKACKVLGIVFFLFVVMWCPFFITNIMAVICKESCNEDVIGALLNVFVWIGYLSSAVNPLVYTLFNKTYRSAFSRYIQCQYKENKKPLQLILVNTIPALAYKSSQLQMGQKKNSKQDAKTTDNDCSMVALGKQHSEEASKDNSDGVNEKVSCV

For the test, the target named is 5-hydroxytryptamine receptor 2A (Homo sapiens, UniProt P28223). As to the kind of experiment: Competition Binding Assay. To be noted: pH 7.4; 37 °C. How it is done:
5-HT-2A receptor affinity was determined by a radioligand competition binding assay with GF-62 cells, a clonal cell line expressing high amounts of 5-HT-2A receptors.
`COc1c(OCCF)cccc1/C(=N/OCCN(C)C)C1CCN(CCc2ccc(F)cc2)CC1` [(E)-[2-(dimethylamino)ethoxy]({[3-(2-fluoroethoxy)-2-methoxyphenyl]({1-[2-(4-fluorophenyl)ethyl]piperidin-4-yl})methylidene})amine, 8]: the inhibitory constant (Ki) (usually a dissociation constant, usually derived from enzyme kinetics or from competition with a known ligand) turned out to be 57 nM.
In turn, `COc1c(OCCF)cccc1C(O)C1CCN(CCn2c(=S)[nH]c3ccccc3c2=O)CC1` (centres undefined) [3-[2-(4-{[3-(2-fluoroethoxy)-2-methoxyphenyl](hydroxy)methyl}piperidin-1-yl)ethyl]-2-sulfanylidene-1,2,3,4-tetrahydroquinazolin-4-one, 4c] showed a Ki of 356 nM.
The value for `COc1cccc(C(=O)C2CCN(CCn3c(=S)[nH]c4ccccc4c3=O)CC2)c1OC` [3-(2-{4-[(2,3-dimethoxyphenyl)carbonyl]piperidin-1-yl}ethyl)-2-sulfanylidene-1,2,3,4-tetrahydroquinazolin-4-one, 4a] was 411 nM; that for `COc1cccc(C(O)C2CCN(CCn3c(=S)[nH]c4ccccc4c3=O)CC2)c1OC` (centres undefined) [3-(2-{4-[(2,3-dimethoxyphenyl)(hydroxy)methyl]piperidin-1-yl}ethyl)-2-sulfanylidene-1,2,3,4-tetrahydroquinazolin-4-one, 4b] was 390 nM.
